Test results from ChEMBL document CHEMBL5346907, “Discovery of a novel oral type Ⅰ CDK8 inhibitor against acute myeloid leukemia” (Eur J Med Chem, 2023).

Key:
[1] = target: Cyclin-dependent kinase 8 (Homo sapiens, UniProt P49336); assay: Inhibition of CDK8 (unknown origin) in presence of ATP by ADP-Glo assay
MV4-11 = assay: Antiproliferative activity against human MV4-11 cells incubated for 48 hrs by CCK8 assay; assay type: functional
SW480 = assay: Antiproliferative activity against human SW480 cells incubated for 48 hrs by CCK8 assay; assay type: functional
GES1 = assay: Antiproliferative activity against human GES1 cells incubated for 48 hrs by CCK8 assay; assay type: functional
[2] = target: CDK1/Cyclin E (Homo sapiens) (UniProt P06493+P24864); assay: Inhibition of CDK1/Cyclin E1 (unknown origin) at 1 uM preincubated for 10 mins followed by substrate addition measured for 60 to 120 mins by HTRF assay relative to control; assay type: protein-complex assay; details: time 70-130 min
[3] = target: CDK1/Cyclin A (Homo sapiens) (UniProt P06493+P20248); assay: Inhibition of CDK1/Cyclin A2 (unknown origin) at 1 uM preincubated for 10 mins followed by substrate addition measured for 60 to 120 mins by HTRF assay relative to control; assay type: protein-complex assay; details: time 70-130 min
[4] = target: CDK9/cyclin T1 (Homo sapiens) (UniProt O60563+P50750); assay: Inhibition of CDK9/Cyclin T1 (unknown origin) at 1 uM preincubated for 10 mins followed by substrate addition measured for 60 to 120 mins by HTRF assay relative to control; assay type: protein-complex assay; details: time 70-130 min
CDK7/Cyclin H/MNAT1 = CDK7/Cyclin H/MNAT1 (Homo sapiens, UniProt P50613); assay: Inhibition of CDK7/Cyclin H/MAT1 (unknown origin) preincubated for 10 mins followed by substrate addition measured for 60 to 120 mins by HTRF assay; assay type: protein-complex assay
CDK9/cyclin T1 = CDK9/cyclin T1 (Homo sapiens, UniProt P50750); assay: Inhibition of CDK9/Cyclin T1 (unknown origin) preincubated for 10 mins followed by substrate addition measured for 60 to 120 mins by HTRF assay; assay type: protein-complex assay
[5] = target: Tyrosine-protein kinase Fyn (Homo sapiens) (UniProt P06241); assay: Inhibition of FYN b (unknown origin) at 1 uM preincubated for 10 mins followed by substrate addition measured for 60 to 120 mins by HTRF assay relative to control; details: time 70-130 min
[6] = target: Proto-oncogene tyrosine-protein kinase receptor Ret (Homo sapiens) (UniProt P07949); assay: Inhibition of RET (unknown origin) at 1 uM preincubated for 10 mins followed by substrate addition measured for 60 to 120 mins by HTRF assay relative to control; details: time 70-130 min
[7] = target: Epithelial discoidin domain-containing receptor 1 (Homo sapiens) (UniProt Q08345); assay: Inhibition of DDR1 (unknown origin) at 1 uM preincubated for 10 mins followed by substrate addition measured for 60 to 120 mins by HTRF assay relative to control; details: time 70-130 min
Chain of Epithelial discoidin domain-containing receptor 1 (Homo sapiens) (Q08345 whole entry, the tested form may be a part): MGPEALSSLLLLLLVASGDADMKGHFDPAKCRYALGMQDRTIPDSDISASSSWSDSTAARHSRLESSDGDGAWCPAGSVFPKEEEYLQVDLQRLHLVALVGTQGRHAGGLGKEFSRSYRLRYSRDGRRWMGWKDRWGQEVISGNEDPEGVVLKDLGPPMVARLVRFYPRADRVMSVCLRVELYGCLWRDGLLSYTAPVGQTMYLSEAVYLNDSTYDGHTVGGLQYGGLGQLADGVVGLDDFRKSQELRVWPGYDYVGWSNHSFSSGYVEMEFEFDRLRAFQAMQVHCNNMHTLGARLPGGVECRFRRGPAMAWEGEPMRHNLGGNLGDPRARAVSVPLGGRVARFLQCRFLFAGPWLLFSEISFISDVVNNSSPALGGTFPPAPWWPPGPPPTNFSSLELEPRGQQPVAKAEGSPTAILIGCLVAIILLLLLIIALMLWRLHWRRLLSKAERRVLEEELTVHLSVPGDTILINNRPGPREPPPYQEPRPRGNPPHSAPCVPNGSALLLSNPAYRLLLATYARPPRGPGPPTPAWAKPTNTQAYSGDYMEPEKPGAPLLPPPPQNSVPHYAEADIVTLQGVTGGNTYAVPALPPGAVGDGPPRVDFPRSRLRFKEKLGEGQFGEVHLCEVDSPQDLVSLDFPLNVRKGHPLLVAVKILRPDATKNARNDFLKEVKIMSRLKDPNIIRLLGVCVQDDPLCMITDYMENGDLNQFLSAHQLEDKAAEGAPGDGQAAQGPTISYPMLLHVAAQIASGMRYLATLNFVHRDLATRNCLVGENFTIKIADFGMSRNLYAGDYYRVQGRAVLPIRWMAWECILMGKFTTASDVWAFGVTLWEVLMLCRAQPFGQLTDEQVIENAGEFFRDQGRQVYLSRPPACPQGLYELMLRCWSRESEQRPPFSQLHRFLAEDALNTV

[8] = target: ALK tyrosine kinase receptor (Homo sapiens) (UniProt Q9UM73); assay: Inhibition of ALK (unknown origin) at 1 uM preincubated for 10 mins followed by substrate addition measured for 60 to 120 mins by HTRF assay relative to control; details: time 70-130 min
Chain of ALK tyrosine kinase receptor (Homo sapiens) (Q9UM73 19-1620 limits assumed): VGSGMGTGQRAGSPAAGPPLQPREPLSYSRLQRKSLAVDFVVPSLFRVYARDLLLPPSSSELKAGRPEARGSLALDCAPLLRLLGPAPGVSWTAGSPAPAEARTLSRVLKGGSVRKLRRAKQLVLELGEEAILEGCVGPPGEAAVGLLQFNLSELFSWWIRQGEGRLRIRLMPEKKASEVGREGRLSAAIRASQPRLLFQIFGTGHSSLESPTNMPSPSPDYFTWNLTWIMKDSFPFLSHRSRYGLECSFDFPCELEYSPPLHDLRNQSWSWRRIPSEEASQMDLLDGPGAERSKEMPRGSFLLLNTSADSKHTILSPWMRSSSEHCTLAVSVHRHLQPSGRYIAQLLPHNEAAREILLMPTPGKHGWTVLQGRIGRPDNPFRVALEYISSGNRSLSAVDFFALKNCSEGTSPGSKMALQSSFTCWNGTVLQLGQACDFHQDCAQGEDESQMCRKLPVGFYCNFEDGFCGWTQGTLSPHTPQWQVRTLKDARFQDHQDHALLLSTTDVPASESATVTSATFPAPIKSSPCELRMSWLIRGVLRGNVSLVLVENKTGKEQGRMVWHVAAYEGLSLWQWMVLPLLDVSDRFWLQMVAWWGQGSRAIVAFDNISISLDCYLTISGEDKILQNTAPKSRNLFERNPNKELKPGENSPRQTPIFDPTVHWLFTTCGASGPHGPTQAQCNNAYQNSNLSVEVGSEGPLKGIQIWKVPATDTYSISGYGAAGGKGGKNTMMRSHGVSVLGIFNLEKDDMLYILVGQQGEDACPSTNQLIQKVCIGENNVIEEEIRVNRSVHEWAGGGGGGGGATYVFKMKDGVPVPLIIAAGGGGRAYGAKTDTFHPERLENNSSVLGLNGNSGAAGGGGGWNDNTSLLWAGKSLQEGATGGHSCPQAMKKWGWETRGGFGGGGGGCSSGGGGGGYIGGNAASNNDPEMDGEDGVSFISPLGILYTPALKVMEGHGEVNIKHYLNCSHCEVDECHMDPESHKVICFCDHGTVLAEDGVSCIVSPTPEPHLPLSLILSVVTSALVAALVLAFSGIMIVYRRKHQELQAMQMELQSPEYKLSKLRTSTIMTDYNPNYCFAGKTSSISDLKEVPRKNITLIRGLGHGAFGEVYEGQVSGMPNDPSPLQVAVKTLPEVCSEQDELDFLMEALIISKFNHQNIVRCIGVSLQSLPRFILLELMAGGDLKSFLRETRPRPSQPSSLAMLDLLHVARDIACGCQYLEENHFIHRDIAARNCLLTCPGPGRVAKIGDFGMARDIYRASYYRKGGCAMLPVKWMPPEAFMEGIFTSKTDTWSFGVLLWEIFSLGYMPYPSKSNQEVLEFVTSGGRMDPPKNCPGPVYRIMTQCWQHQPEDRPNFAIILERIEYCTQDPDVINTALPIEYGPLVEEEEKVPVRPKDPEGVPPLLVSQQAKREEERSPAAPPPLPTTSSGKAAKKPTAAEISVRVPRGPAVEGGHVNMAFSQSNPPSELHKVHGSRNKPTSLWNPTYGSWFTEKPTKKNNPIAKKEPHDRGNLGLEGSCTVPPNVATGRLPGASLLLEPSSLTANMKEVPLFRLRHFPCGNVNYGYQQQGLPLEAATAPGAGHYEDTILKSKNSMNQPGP

[9] = target: Tyrosine-protein kinase Lyn (Homo sapiens) (UniProt P07948); assay: Inhibition of LYN a (unknown origin) at 1 uM preincubated for 10 mins followed by substrate addition measured for 60 to 120 mins by HTRF assay relative to control; details: time 70-130 min
Chain of Tyrosine-protein kinase Lyn (Homo sapiens) (P07948 2-512 limits assumed): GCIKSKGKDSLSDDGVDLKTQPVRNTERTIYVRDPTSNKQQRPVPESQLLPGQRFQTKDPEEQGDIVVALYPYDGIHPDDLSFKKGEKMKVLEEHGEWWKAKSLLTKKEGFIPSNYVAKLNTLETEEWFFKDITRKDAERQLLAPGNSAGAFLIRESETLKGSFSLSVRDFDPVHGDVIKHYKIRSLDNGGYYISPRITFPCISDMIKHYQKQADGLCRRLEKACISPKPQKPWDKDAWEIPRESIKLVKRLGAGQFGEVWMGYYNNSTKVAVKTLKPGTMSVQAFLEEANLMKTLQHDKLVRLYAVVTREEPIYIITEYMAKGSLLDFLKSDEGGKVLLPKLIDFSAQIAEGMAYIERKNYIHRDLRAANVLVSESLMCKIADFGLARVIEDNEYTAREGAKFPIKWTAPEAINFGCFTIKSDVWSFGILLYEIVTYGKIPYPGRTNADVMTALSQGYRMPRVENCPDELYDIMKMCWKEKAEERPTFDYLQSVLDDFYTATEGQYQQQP

[10] = target: Tyrosine-protein kinase Lyn (Homo sapiens) (UniProt P07948); assay: Inhibition of LYNb (unknown origin) at 1 uM preincubated for 10 mins followed by substrate addition measured for 60 to 120 mins by HTRF assay relative to control; details: time 70-130 min
[11] = target: Fibroblast growth factor receptor 3 (Homo sapiens) (UniProt P22607); assay: Inhibition of FGFR3 (unknown origin) at 1 uM preincubated for 10 mins followed by substrate addition measured for 60 to 120 mins by HTRF assay relative to control; details: time 70-130 min
[12] = target: Epidermal growth factor receptor (Homo sapiens) (UniProt P00533); assay: Inhibition of EGFR (unknown origin) at 1 uM preincubated for 10 mins followed by substrate addition measured for 60 to 120 mins by HTRF assay relative to control; details: time 70-130 min
[13] = target: Cytoplasmic tyrosine-protein kinase BMX (Homo sapiens) (UniProt P51813); assay: Inhibition of BMX (unknown origin) at 1 uM preincubated for 10 mins followed by substrate addition measured for 60 to 120 mins by HTRF assay relative to control; details: time 70-130 min
[14] = target: Fibroblast growth factor receptor 2 (Homo sapiens) (UniProt P21802); assay: Inhibition of FGFR2 (unknown origin) at 1 uM preincubated for 10 mins followed by substrate addition measured for 60 to 120 mins by HTRF assay relative to control; details: time 70-130 min
[15] = target: Tyrosine-protein kinase HCK (Homo sapiens) (UniProt P08631); assay: Inhibition of HCK (unknown origin) at 1 uM preincubated for 10 mins followed by substrate addition measured for 60 to 120 mins by HTRF assay relative to control; details: time 70-130 min
Chain of Tyrosine-protein kinase HCK (Homo sapiens) (P08631 2-526 limits assumed): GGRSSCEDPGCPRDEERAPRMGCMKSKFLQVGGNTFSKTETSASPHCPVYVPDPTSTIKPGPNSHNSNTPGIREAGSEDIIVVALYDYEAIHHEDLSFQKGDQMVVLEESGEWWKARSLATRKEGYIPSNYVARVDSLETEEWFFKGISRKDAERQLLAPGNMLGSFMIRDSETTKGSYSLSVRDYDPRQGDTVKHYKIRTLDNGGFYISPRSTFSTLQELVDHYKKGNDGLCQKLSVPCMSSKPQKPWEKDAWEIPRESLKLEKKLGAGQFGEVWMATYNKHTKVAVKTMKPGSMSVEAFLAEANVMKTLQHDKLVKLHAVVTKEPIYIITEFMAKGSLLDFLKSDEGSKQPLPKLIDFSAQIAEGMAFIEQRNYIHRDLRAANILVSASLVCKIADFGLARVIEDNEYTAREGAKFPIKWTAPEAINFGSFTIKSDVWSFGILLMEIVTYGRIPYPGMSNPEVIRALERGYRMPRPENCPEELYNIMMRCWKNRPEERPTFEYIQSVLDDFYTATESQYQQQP

[16] = target: Tyrosine-protein kinase Tec (Homo sapiens) (UniProt P42680); assay: Inhibition of TEC (unknown origin) at 1 uM preincubated for 10 mins followed by substrate addition measured for 60 to 120 mins by HTRF assay relative to control; details: time 70-130 min
[17] = target: Ephrin type-B receptor 1 (Homo sapiens) (UniProt P54762); assay: Inhibition of EPHB1 (unknown origin) at 1 uM preincubated for 10 mins followed by substrate addition measured for 60 to 120 mins by HTRF assay relative to control; details: time 70-130 min
[18] = target: Mast/stem cell growth factor receptor Kit (Homo sapiens) (UniProt P10721); assay: Inhibition of KIT (unknown origin) at 1 uM preincubated for 10 mins followed by substrate addition measured for 60 to 120 mins by HTRF assay relative to control; details: time 70-130 min
Chain of Mast/stem cell growth factor receptor Kit (Homo sapiens) (P10721 whole entry): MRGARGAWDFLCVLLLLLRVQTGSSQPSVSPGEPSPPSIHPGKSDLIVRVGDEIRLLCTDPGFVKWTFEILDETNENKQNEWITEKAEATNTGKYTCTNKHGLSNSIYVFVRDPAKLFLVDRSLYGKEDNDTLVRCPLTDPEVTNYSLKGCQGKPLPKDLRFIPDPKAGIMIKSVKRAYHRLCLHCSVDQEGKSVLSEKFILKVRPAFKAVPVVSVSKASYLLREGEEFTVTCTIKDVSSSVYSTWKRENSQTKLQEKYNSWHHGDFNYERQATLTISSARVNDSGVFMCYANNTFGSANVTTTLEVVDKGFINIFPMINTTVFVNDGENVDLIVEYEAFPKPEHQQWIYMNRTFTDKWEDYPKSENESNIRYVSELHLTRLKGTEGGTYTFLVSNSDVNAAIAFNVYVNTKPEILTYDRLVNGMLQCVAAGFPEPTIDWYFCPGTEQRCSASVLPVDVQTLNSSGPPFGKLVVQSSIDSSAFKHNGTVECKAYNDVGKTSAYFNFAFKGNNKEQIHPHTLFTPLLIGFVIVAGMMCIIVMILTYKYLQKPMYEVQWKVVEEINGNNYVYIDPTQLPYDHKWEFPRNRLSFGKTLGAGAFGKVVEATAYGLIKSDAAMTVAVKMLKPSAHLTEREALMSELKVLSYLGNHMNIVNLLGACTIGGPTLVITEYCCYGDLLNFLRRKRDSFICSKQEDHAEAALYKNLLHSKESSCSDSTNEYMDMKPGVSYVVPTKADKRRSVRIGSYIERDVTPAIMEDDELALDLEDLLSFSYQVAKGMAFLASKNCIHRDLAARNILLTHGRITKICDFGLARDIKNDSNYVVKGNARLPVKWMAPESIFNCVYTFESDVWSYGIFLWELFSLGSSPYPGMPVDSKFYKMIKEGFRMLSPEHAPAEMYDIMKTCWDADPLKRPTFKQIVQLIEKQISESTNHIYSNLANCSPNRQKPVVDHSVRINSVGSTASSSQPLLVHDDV

[19] = target: Macrophage colony-stimulating factor 1 receptor (Homo sapiens) (UniProt P07333); assay: Inhibition of CSF1R (unknown origin) at 1 uM preincubated for 10 mins followed by substrate addition measured for 60 to 120 mins by HTRF assay relative to control; details: time 70-130 min
HCT-116 = assay: Downregulation of STAT1 S727 expression in IFNgamma-stimulated human HCT-116 cells incubated for 12 hrs followed by IFNgamma stimulation for 3 hrs by Western blot analysis; assay type: functional, cell-based; details: dose 1-10 µM
HL-60 [20] = assay: Induction of apoptosis in human HL-60 cells assessed as early apoptosis cells at 5 uM incubated for 48 hrs by annexin V-FITC/PI staining based flow cytometry (reference value: 2.08 %); assay type: functional
HL-60 [21] = assay: Induction of apoptosis in human HL-60 cells assessed as early apoptosis cells at 10 uM incubated for 48 hrs by annexin V-FITC/PI staining based flow cytometry (reference value: 2.08 %); assay type: functional
HL-60 [22] = assay: Induction of apoptosis in human HL-60 cells assessed as late apoptotic cells at 10 uM incubated for 48 hrs by annexin V-FITC/PI staining based flow cytometry (reference value: 1.07 %); assay type: functional
[23] = Tmax in Sprague-Dawley rat at 10 mg/kg, po; assay type: ADME, organism-based; details: in vivo
[24] = Cmax in Sprague-Dawley rat at 10 mg/kg, po; assay type: ADME, organism-based; design: dose 10 mg/kg, route po; details: in vivo
[25] = Tmax in Sprague-Dawley rat at 2 mg/kg, iv; assay type: ADME, organism-based; details: in vivo
[26] = Acute toxicity in C57BL/6 mouse assessed as histopathological change in kidney at 2000 mg/kg, IG measured for 14 days by H&E staining based analysis; assay type: organism-based; details: in vivo, po, 336 h, time 14 day

Chain of Cyclin-dependent kinase 8 (P49336 whole entry): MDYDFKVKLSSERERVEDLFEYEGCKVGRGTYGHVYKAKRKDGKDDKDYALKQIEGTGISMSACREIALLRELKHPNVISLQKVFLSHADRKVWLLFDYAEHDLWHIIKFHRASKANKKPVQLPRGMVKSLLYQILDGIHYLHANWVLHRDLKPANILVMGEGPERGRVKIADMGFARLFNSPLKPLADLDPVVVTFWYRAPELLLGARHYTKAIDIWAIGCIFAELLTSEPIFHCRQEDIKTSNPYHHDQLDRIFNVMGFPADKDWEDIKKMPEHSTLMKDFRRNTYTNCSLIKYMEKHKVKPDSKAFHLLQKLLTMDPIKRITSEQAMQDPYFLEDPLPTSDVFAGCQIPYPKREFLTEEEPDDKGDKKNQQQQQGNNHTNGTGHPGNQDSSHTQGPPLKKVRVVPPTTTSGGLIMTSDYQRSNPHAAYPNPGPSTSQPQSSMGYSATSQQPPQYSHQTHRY

## NC(=O)c1cccc(-c2cnc3[nH]ccc3c2)c1
[1]
  IC50: 51.9 nM
MV4-11
  GI50: 4610 nM
SW480
  GI50: > 50000 nM
GES1
  GI50: > 100000 nM
[2]
  inhibition: 8.89%
[3]
  inhibition: 8.45%
[4]
  inhibition: 7.41%
CDK7/Cyclin H/MNAT1
  IC50: 428 nM
CDK9/cyclin T1
  IC50: 711 nM
[5]
  inhibition: 24.8%
[6]
  inhibition: 23.9%
[7]
  inhibition: 20%
[8]
  inhibition: 19.1%
[9]
  inhibition: 15.4%
[10]
  inhibition: 13.1%
[11]
  inhibition: 10.8%
[12]
  inhibition: 8.01%
[13]
  inhibition: 5.13%
[14]
  inhibition: 4.02%
[15]
  inhibition: 2.33%
[16]
  inhibition: 0%
[17]
  inhibition: 0%
[18]
  inhibition: 0%
[19]
  inhibition: 0%
HCT-116
  Activity: Dose-Dependent Effect
HL-60 [20]
  Activity: 22.4%
HL-60 [21]
  Activity: 0.15%
HL-60 [22]
  Activity: 2.43%
[23]
  Tmax: 60 min
[24]
  Cmax: 206 ng/mL
[25]
  Tmax: 4.98 min
[26]
  Activity: Non-Toxic
